Assay [1] is described as follows: Binding affinity to methemoglobin in phosphate buffer at pH 7.0 over 30 mins by spectrophotometry.
A short description of assay [2]: Binding affinity to methemoglobin in phosphate buffer at pH 5.0 over 30 mins by spectrophotometry.
Assay [3] in a line: Binding affinity to oxyhemoglobin in phosphate buffer at pH 7.0 at 37 degC over 24 hrs by spectrophotometry.
Assay [4] can be described thus: Binding affinity to oxyhemoglobin in ammonium acetate buffer at pH 8.0 over 24 hrs by spectrophotometry.
The nature of assay [5]: Binding affinity to oxyhemoglobin in phosphate buffer at pH 7.0 at room temperature over 24 hrs by spectrophotometry.
Assay [6] is described as follows: Binding affinity to hemin in sodium acetate buffer at pH 5.0.
Assay [7] is described as follows: Binding affinity to heme in sodium acetate buffer at pH 5.0.
The nature of assay [8]: Binding affinity to heme in ammonium acetate buffer at pH 5.0 at 40 uM in presence of ferrocyanide.

Drawing on ChEMBL document CHEMBL1156617, “Heme activates artemisinin more efficiently than hemin, inorganic iron, or hemoglobin” (Bioorg Med Chem, 2008), this text covers Activity for two compounds.

Activity calls are given as the source filed them. The calls are words filed in the database; no cut-off is given here.

Take `C[C@H]1[C@H](OC(=O)CCC(=O)O)O[C@@H]2O[C@@]3(C)CC[C@H]4[C@H](C)CC[C@@H]1[C@@]24OO3`: the outcome in assay [1], in assay [2], in assay [3], in assay [4] and in assay [5] was inactive.

Regarding `C[C@@H]1CC[C@H]2[C@@H](C)C(=O)O[C@@H]3O[C@@]4(C)CC[C@@H]1[C@]32OO4`, the outcome in assay [6] was inactive. Moreover, the Activity result in assay [7] was “Dose-dependent effect”. The result in assay [8] was Active.
